Assay results published in ChEMBL document CHEMBL3045728, “Synthesis, physico-chemical properties, and antimicrobial evaluation of a new series of iron(III) hexadentate chelators” (Med Chem Res, 2013).
In brackets after ≈: the same amount, converted by molar mass.

How the values were obtained:
[1] = Iron chelating activity of the compound assessed as stability constant of Fe3+-compound complex; assay type: physicochemical
[2] = system: Pseudomonas aeruginosa; experiment: Antimicrobial activity against Pseudomonas aeruginosa assessed as growth inhibition incubated for 2 hr measured after 24 hr by turbidity based assay; assay type: functional
[3] = system: Escherichia coli; experiment: Antimicrobial activity against Escherichia coli assessed as growth inhibition incubated for 2 hr measured after 24 hr by turbidity based assay; assay type: functional
[4] = system: Bacillus subtilis; experiment: Antimicrobial activity against Bacillus subtilis assessed as growth inhibition incubated for 2 hr measured after 24 hr by turbidity based assay; assay type: functional
[5] = system: Bacillus cereus; experiment: Antimicrobial activity against Bacillus cereus assessed as growth inhibition incubated for 2 hr measured after 24 hr by turbidity based assay; assay type: functional
[6] = system: Staphylococcus aureus; experiment: Antimicrobial activity against Staphylococcus aureus assessed as growth inhibition incubated for 2 hr measured after 24 hr by turbidity based assay; assay type: functional
[7] = Iron chelating activity of the compound assessed as stability constant of Fe3+-compound complex after 5 min by spectrophotometric titration analysis; assay type: physicochemical

log K [1]	MIC [2]	MIC [3]	MIC [4]	MIC [5]	MIC [6]	log K [7]	SMILES
	40 µg/mL (≈ 48.7 µM)	40 µg/mL (≈ 48.7 µM)	40 µg/mL (≈ 48.7 µM)	40 µg/mL (≈ 48.7 µM)	40 µg/mL (≈ 48.7 µM)	32	O=C(NCCN(CCNC(=O)c1c(O)c(=O)ccn1CCOCCO)CCNC(=O)c1c(O)c(=O)ccn1CCOCCO)c1c(O)c(=O)ccn1CCOCCO
	24 µg/mL (≈ 43 µM)	80 µg/mL (≈ 143 µM)	40 µg/mL (≈ 71.7 µM)	40 µg/mL (≈ 71.7 µM)	40 µg/mL (≈ 71.7 µM)	30.7	O=C(NCCN(CCNC(=O)c1[nH]ccc(=O)c1O)CCNC(=O)c1[nH]ccc(=O)c1O)c1[nH]ccc(=O)c1O
	40 µg/mL (≈ 58 µM)	40 µg/mL (≈ 58 µM)	40 µg/mL (≈ 58 µM)	40 µg/mL (≈ 58 µM)	80 µg/mL (≈ 116 µM)		O=C(NCCN(CCNC(=O)c1c(O)c(=O)ccn1CCO)CCNC(=O)c1c(O)c(=O)ccn1CCO)c1c(O)c(=O)ccn1CCO
	24 µg/mL (≈ 40 µM)	24 µg/mL (≈ 40 µM)	40 µg/mL (≈ 66.7 µM)	40 µg/mL (≈ 66.7 µM)	40 µg/mL (≈ 66.7 µM)	32.1	Cn1ccc(=O)c(O)c1C(=O)NCCN(CCNC(=O)c1c(O)c(=O)ccn1C)CCNC(=O)c1c(O)c(=O)ccn1C
	16 µg/mL (≈ 24.9 µM)	24 µg/mL (≈ 37.4 µM)	40 µg/mL (≈ 62.3 µM)	40 µg/mL (≈ 62.3 µM)	40 µg/mL (≈ 62.3 µM)	32.6	CCn1ccc(=O)c(O)c1C(=O)NCCN(CCNC(=O)c1c(O)c(=O)ccn1CC)CCNC(=O)c1c(O)c(=O)ccn1CC
	16 µg/mL (≈ 21.9 µM)	16 µg/mL (≈ 21.9 µM)	40 µg/mL (≈ 54.7 µM)	80 µg/mL (≈ 109 µM)	80 µg/mL (≈ 109 µM)	32.3	COCCn1ccc(=O)c(O)c1C(=O)NCCN(CCNC(=O)c1c(O)c(=O)ccn1CCOC)CCNC(=O)c1c(O)c(=O)ccn1CCOC
	40 µg/mL (≈ 55.1 µM)	40 µg/mL (≈ 55.1 µM)	80 µg/mL (≈ 110 µM)	80 µg/mL (≈ 110 µM)	80 µg/mL (≈ 110 µM)		CCCCn1ccc(=O)c(O)c1C(=O)NCCN(CCNC(=O)c1c(O)c(=O)ccn1CCCC)CCNC(=O)c1c(O)c(=O)ccn1CCCC

More lines, now with the values behind:

SMILES	log K [1]	MIC [2]	MIC [3]	MIC [4]	MIC [5]	MIC [6]	log K [7]
CC(=O)N(O)CCCCCNC(=O)CCC(=O)N(O)CCCCCNC(=O)CCC(=O)N(O)CCCCCN [DEFEROXAMINE]	30.4						
CCCCCCn1ccc(=O)c(O)c1C(=O)NCCN(CCNC(=O)c1c(O)c(=O)ccn1CCCCCC)CCNC(=O)c1c(O)c(=O)ccn1CCCCCC		40 µg/mL (≈ 49.4 µM)	80 µg/mL (≈ 98.8 µM)	40 µg/mL (≈ 49.4 µM)	40 µg/mL (≈ 49.4 µM)	40 µg/mL (≈ 49.4 µM)	
O=C(O)C(NCCNC(C(=O)O)c1ccccc1O)c1ccccc1O (centres undefined)	34						
O=C(O)CN(CCN(CC(=O)O)CC(=O)O)CCN(CC(=O)O)CC(=O)O [PENTETIC ACID]	28.6	80 µg/mL (≈ 203 µM)	80 µg/mL (≈ 203 µM)	80 µg/mL (≈ 203 µM)	80 µg/mL (≈ 203 µM)	40 µg/mL (≈ 102 µM)	
O=C(O)CN(CCN(CC(=O)O)Cc1ccccc1O)Cc1ccccc1O	40						
